Source: article PMC8725837, “2-Arylquinolines as novel anticancer agents with dual EGFR/FAK kinase inhibitory activity: synthesis, biological evaluation, and molecular modelling insights” (Journal of Enzyme Inhibition and Medicinal Chemistry, 2021)

Key:
[1] = tested on: MDMBA-231 breast cancer cell line; assay: MTT antiproliferative assay, MDMBA-231; assay type: cell-based; details: 10 µM, 24 h
Method: (§1) At least, three independent experiments were performed.

[2] = tested on: MCF-7 breast cancer cell line; assay: MTT antiproliferative assay, MCF-7; assay type: cell-based; details: 10 µM, 24 h
Method: as §1

[3] = tested on: HeLa cervical cancer cell line; assay: MTT antiproliferative assay, HeLa; assay type: cell-based; details: 10 µM, 24 h
Method: as §1

[4] = target: T1, FRK (Homo sapiens, UniProt P42685); assay: Z`-LYTE kinase profiling, FRK; assay type: biochemical
T1 construct: purchased Invitrogen/Life Technologies
T1 sequence (P42685 whole entry): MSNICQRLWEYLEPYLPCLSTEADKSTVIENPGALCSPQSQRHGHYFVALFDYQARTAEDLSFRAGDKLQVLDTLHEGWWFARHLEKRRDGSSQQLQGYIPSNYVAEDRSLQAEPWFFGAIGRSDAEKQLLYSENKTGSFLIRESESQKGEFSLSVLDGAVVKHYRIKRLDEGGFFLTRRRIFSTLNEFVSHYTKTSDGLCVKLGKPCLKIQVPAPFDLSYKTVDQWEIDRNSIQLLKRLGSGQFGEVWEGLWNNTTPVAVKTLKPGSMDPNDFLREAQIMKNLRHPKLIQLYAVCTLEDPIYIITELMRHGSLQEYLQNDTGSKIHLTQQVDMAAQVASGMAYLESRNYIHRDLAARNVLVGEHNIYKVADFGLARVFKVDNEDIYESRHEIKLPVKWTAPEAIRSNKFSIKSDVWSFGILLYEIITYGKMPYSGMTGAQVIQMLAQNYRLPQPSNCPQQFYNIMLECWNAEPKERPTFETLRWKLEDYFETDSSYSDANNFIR

[5] = target: T2, IGF-1R (Homo sapiens, UniProt P08069); assay: Z`-LYTE kinase profiling, IGF-1R; assay type: biochemical
T2 construct: purchased Invitrogen/Life Technologies

[6] = target: T3, BTK (Homo sapiens, UniProt Q06187); assay: Z`-LYTE kinase profiling, BTK; assay type: biochemical
T3 construct: purchased Invitrogen/Life Technologies
T3 sequence (Q06187 whole entry): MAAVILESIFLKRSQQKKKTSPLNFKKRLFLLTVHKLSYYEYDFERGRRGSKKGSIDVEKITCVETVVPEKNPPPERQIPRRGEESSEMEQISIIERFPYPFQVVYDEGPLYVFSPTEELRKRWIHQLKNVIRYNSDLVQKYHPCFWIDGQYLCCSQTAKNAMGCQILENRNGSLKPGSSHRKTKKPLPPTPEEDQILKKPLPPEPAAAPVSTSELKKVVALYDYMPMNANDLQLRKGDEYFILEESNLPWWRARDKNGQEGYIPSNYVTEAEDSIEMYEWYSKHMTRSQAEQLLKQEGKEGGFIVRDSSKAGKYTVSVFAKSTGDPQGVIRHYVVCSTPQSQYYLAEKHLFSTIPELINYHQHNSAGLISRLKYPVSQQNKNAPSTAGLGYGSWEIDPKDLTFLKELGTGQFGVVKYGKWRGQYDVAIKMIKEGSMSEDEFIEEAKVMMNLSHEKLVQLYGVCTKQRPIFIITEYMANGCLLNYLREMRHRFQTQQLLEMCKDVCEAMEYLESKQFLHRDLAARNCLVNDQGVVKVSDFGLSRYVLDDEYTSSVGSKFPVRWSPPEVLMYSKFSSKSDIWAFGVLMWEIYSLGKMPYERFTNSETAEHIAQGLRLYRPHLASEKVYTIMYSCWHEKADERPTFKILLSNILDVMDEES

[7] = target: T4, c-Src (Homo sapiens, UniProt P12931); assay: Z`-LYTE kinase profiling, c-Src; assay type: biochemical
T4 construct: purchased Invitrogen/Life Technologies
T4 sequence (P12931 whole entry): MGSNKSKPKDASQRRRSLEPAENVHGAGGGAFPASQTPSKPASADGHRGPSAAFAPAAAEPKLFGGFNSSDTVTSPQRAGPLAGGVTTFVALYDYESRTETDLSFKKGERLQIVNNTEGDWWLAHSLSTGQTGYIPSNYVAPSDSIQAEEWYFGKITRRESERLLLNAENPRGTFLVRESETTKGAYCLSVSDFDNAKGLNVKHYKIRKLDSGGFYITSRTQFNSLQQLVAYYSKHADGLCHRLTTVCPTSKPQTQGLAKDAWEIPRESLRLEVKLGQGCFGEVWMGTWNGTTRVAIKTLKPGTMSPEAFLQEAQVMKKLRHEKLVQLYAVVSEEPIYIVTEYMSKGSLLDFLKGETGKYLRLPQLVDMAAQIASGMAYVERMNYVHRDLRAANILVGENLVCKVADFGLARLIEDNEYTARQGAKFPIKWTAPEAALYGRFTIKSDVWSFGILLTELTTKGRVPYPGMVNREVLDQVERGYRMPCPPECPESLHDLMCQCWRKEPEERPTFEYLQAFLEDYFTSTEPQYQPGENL

[8] = target: T5, VEGFR-1 (Homo sapiens, UniProt P17948); assay: Z`-LYTE kinase profiling, VEGFR-1; assay type: biochemical
T5 construct: purchased Invitrogen/Life Technologies

[9] = target: T6, VEGFR-2 (Homo sapiens, UniProt P35968); assay: Z`-LYTE kinase profiling, VEGFR-2; assay type: biochemical
T6 construct: purchased Invitrogen/Life Technologies
T6 sequence (P35968 20-1356): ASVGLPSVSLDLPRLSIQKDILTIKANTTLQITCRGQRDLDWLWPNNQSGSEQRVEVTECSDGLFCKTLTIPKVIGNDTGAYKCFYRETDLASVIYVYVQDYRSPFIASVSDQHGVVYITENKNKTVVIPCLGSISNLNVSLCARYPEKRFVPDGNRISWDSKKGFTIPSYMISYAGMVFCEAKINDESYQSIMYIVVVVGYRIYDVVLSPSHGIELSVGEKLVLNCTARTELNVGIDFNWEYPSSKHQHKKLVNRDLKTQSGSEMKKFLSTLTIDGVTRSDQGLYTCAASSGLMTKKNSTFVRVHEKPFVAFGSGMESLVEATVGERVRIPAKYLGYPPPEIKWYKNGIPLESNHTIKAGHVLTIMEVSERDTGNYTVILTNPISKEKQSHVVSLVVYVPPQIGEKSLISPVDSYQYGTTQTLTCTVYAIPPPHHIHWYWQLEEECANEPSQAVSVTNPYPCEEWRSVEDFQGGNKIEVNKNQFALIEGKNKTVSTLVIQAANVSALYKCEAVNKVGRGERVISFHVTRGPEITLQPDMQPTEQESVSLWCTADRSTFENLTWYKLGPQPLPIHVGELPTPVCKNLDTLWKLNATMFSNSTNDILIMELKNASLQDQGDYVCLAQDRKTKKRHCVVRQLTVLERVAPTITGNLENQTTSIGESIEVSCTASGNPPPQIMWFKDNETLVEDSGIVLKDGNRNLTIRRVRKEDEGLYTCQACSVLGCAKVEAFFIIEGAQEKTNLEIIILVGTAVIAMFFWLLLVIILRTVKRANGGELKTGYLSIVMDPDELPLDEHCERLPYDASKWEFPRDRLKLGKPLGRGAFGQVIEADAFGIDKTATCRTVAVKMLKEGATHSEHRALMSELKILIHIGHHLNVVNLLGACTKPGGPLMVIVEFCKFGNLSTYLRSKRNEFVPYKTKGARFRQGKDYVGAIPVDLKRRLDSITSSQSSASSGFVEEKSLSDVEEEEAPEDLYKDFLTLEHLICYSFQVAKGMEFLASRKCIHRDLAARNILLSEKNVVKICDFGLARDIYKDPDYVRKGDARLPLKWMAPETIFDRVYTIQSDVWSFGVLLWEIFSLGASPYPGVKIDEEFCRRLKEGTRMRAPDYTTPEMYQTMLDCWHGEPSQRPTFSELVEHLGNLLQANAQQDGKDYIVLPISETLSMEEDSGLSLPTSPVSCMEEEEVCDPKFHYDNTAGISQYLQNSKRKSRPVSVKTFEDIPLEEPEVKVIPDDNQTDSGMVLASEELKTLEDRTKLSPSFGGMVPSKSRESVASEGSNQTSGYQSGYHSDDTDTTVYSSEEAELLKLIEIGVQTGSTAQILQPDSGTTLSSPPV

[10] = target: T7, HER-2 (Homo sapiens, UniProt P04626); assay: Z`-LYTE kinase profiling, HER-2; assay type: biochemical
T7 construct: purchased Invitrogen/Life Technologies

[11] = tested on: DLD-1 colorectal cancer cell line; assay: MTT antiproliferative assay, DLD-1; details: for GI% DLD1: 10 µM, 24 h, MTT; for IC50: Homo sapiens, DLD-1, 24 h, read-out: IC50 DLD1 (half maximal growth inhibitory concentration)
Method: (§2) After the incubation of the tested compounds for 24 h, the percent growth inhibition (GI%) was calculated.
(§3) Cells were seeded at 1 × 10^4 cells/well and cultured overnight in a 96-well plate. […] Then, 150 µl DMSO was used to solubilise MTT formazan crystals. Finally, the plates were shaken, and the optical density was determined at 570 nm using ELISA plate reader. At least, three independent experiments were performed. Percentage of growth inhibition was determined as (1-[OD of treated cells/OD of control cells]). […] The IC50 values were calculated using Prism v0.8 software (GraphPad Software Inc., La Jolla, CA).

[12] = tested on: HCT-116 colorectal cancer cell line; assay: MTT antiproliferative assay, HCT-116; details: for GI% HCT-116: 10 µM, 24 h, MTT; for IC50: Homo sapiens, HCT-116, 24 h, read-out: IC50 HCT-116 (half maximal growth inhibitory concentration)
Method: as §2, §3

[13] = target: FAK (Homo sapiens, UniProt Q05397); assay: Z`-LYTE kinase inhibitory assay, FAK
Sequence of FAK (Q05397 whole entry): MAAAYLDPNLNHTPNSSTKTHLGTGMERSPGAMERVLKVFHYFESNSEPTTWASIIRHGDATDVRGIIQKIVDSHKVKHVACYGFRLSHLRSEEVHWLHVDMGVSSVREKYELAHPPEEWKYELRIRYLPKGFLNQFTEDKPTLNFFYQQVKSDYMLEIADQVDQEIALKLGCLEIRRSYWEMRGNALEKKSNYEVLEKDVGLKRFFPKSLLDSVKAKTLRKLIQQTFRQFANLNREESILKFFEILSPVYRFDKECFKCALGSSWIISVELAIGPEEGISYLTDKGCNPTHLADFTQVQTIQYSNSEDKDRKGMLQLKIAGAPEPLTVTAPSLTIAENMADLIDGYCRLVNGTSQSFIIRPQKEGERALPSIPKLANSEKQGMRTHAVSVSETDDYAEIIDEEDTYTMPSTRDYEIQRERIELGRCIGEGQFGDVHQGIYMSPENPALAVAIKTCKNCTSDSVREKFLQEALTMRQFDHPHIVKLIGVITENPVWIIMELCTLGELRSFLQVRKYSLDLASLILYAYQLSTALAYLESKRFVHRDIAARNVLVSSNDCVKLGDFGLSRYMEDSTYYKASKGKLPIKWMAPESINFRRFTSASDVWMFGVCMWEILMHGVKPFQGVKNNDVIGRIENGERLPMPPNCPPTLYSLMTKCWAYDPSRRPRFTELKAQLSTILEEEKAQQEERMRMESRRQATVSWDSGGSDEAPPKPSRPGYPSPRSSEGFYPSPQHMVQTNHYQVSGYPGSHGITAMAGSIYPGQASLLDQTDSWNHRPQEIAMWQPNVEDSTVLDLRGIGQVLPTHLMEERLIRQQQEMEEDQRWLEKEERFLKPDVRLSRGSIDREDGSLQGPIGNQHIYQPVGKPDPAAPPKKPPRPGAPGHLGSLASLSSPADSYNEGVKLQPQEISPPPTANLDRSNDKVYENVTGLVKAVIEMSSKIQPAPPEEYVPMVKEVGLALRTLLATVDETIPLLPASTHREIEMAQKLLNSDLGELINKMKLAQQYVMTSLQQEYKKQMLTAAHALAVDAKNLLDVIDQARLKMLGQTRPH

[14] = target: EGFR (Homo sapiens, UniProt P00533); assay: Z`-LYTE kinase inhibitory assay, EGFR
[15] = target: T8, recombinant human TOP1 (Homo sapiens, UniProt P11387); assay: Topoisomerase I-mediated DNA cleavage assay; details: tested at 0.1, 1, 10, 100 µM
T8 sequence (P11387 1-765): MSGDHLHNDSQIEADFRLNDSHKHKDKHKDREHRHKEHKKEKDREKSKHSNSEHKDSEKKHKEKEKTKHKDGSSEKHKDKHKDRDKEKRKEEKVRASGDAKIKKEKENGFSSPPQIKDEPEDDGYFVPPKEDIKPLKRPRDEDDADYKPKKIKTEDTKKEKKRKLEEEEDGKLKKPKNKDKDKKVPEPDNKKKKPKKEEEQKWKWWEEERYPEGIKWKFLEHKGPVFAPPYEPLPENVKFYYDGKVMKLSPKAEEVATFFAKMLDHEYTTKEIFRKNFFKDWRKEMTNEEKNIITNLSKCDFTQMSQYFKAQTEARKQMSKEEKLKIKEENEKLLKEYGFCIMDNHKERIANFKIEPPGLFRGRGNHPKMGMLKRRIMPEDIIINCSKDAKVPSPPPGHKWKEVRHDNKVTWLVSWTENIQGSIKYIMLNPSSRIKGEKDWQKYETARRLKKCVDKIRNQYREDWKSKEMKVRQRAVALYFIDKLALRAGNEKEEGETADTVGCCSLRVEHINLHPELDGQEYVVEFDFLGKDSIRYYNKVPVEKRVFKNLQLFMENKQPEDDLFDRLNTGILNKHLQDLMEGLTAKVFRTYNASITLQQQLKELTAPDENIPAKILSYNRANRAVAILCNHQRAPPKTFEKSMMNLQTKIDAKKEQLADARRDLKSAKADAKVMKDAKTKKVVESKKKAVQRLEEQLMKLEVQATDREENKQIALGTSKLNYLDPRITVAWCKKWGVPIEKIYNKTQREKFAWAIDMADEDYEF

Row | SMILES | GI% MDMBA-231 [1] [%] | GI% MCF-7 [2] [%] | GI% Hela [3] [%] | IC50 [4] [nM] | IC50 [5] [nM] | IC50 [6] [nM] | IC50 [7] [nM] | IC50 [8] [nM] | IC50 [9] [nM] | IC50 [10] [nM] | melting point [°C] | GI% DLD1 [11] [%] | IC50 [11] [nM] | GI% HCT-116 [12] [%] | IC50 [12] [nM] | IC50 [13] [nM] | IC50 [14] [nM] | TOP1 inhibitory activity (semiquantitative score relative to 1 µM CPT) [15]
1 | FC(F)(F)c1ccc(-c2cc(OCCCn3ccnc3)c3cc4c(cc3n2)OCO4)cc1 [12c, 8-(3-(1H-imidazol-1-yl)propoxy)-6-(4-(trifluoromethyl)phenyl)-[1,3]dioxolo[4,5-g]qui-noline] | 61.94 | 43.27 | 68.22 | 4880 | 9000 | 99.5 | 119 | 7720 | 56.9 | 169 | 125 to 127 | 71.94 | 9120 ± 2110 | 80.49 | 6370 ± 1090 | 111 ± 8.94 | 247 ± 12.3 | 0
2 | FC(F)(F)c1ccc(-c2cc(OCCCN3CCOCC3)c3cc4c(cc3n2)OCO4)cc1 [12d, 8-(3-morpholinopropoxy)-6-(4-(trifluoromethyl)phenyl)-[1,3]dioxolo[4,5-g]quinoline] | 9.36 | 26.54 | 36.67 | 6530 | 453 | 653 | 1450 | 2540 | 855 | 897 | 138 to 140 | 22.58 | 74900 ± 5460 | 54.37 | 9200 ± 2490 | 273 ± 2.84 | 450.2 ± 4.25 | 0
3 | Clc1ccc(-c2cc(OCCCn3ccnc3)c3cc(Br)ccc3n2)cc1 [16a, 4-(3-(1H-imidazol-1-yl)propoxy)-6-bromo-2-(4-chlorophenyl)quinoline] | 51.24 | 22.97 | 47.35 | 6150 | 5230 | 4800 | 1350 | 1960 | 3410 | 2020 | 149 to 151 | 60.08 | 8220 ± 1120 | 76.17 | 6150 ± 1300 | 44.1 ± 3.26 | 222 ± 8.25 | 0
4 | Clc1ccc(-c2cc(OCCCN3CCOCC3)c3cc(Br)ccc3n2)cc1 [16b, 4-(3-((6-bromo-2-(4-chlorophenyl)quinolin-4-yl)oxy)propyl)morpholine] | 45.31 | 19.38 | 35.94 | 3130 | 3490 | 2880 | 1320 | 1270 | 3230 | 2310 | 137 to 139 | 55.82 | 8690 ± 2640 | 87.61 | 4220 ± 1050 | 50.4 ± 4.81 | 313 ± 15.3 | 0
5 | Fc1ccc(-c2cc(OCCCn3ccnc3)c3cc(Br)ccc3n2)cc1 [16c, 4-(3-(1H-imidazol-1-yl)propoxy)-6-bromo-2-(4-fluorophenyl)quinoline] | 20.11 | 4.36 | 8.67 | 6670 | 6690 | 5620 | 1730 | 2560 | 5100 | 1610 | 144 to 146 | 12.25 | > 100000 | 18.14 | 88000 ± 5240 | 224 ± 10.5 | 485 ± 11.4 | + (+: 25–50% 1 µM CPT)
6 | COc1ccc(-c2ccc3nc(-c4ccc(Cl)cc4)cc(OCCCn4ccnc4)c3c2)cc1 [20a, 4-(3-(1H-imidazol-1-yl)propoxy)-2-(4-chlorophenyl)-6-(4-methoxyphenyl)quinoline] | 29.08 | 15.23 | 22.06 | 2620 | 2860 | 8670 | 2900 | 1350 | 1250 | 1010 | 210 to 212 | 44.98 | 13000 ± 3690 | 36.71 | 24100 ± 2460 | 77.3 ± 4.37 | 122 ± 9.4 | 0
7 | COc1ccc(-c2ccc3nc(-c4ccc(Cl)cc4)cc(OCCCN4CCOCC4)c3c2)cc1 [20b, 4-(3-((2-(4-chlorophenyl)-6-(4-methoxyphenyl)quinolin-4-yl)oxy)propyl)morpholine] | 48.31 | 29.37 | 34.02 | 8710 | 8910 | 8980 | 4210 | 4740 | 2300 | 1650 | 173 to 175 | 53.15 | 9650 ± 2150 | 71.05 | 7340 ± 1820 | 63.2 ± 3.25 | 245 ± 12.3 | 0
